Like-named read-outs stand apart in the source and are kept apart here.
Key:
T.b. brucei [1] = assay: T.b. brucei temporal viability (time-kill) assay, 48 h, PrestoBlue; format: cell-based, Trypanosoma brucei brucei; settings: for Emax: read-out: Emax 48 h T.b. brucei (converted); for IC50: read-out: IC50 48 h T.b. brucei
HEK293 cells = assay: HEK293 cytotoxicity assay; format: cell-based, human; settings: HEK293, 72 h; NA = not active; highest dose 79 µM unless given
T. cruzi and T.b. brucei = assay: Speed of action and cidality classification from temporal and wash off assays; format: cell-based, Trypanosoma cruzi, Trypanosoma brucei brucei; settings: for Speed of Action (FA/SA): TBB = T.b. brucei
[2] = test system: T.b. brucei bloodstream 427 strain parasites; assay: T.b. brucei 72 h REDOX-based (resazurin) viability assay; format: cell-based, Trypanosoma brucei brucei; settings: for Emax / IC50 / Emax % (T.b. brucei): 72 h; for SI (T.b. brucei) HEK: selectivity index in relation to HEK293 cells; for SI (T.b. brucei) (HEP): selectivity index in relation to HEPG2 cells
T.b. brucei [3] = assay: T.b. brucei temporal viability (time-kill) assay, 24 h, PrestoBlue; format: cell-based, Trypanosoma brucei brucei; settings: for Emax: read-out: Emax 24 h T.b. brucei (converted); for IC50: read-out: IC50 24 h T.b. brucei
Experimental: Time-kill assays was undertaken as previously described, using the REDOX reagent PrestoBlue® [24]. […] Control compounds were added at the same concentrations at outlined for the resazurin-based assays.

[4] = test system: T. cruzi Tulahuen strain parasites in 3T3 host cells; assay: T. cruzi 48 h image-based assay; format: cell-based, Trypanosoma cruzi; settings: for Emax % (T. cruzi) / IC50 / Emax: 48 h; for IC50: read-out: IC50 (T. cruzi); for SI (T. cruzi) 3T3: selectivity index in relation to 3T3 host cells, highest dose 3T3 73 µM; for SI (T. cruzi) HEK: selectivity index in relation to HEK293 cells; for SI (T. cruzi) (HEP): selectivity index in relation to HEPG2 cells; for Emax: read-out: Emax % (T. cruzi) (converted)
T. cruzi [5] = assay: T. cruzi compound wash off assay (48 h with compound, wash off, 72 h without); format: cell-based, Trypanosoma cruzi; settings: T. cruzi; for IC50: read-out: IC50 Wash Off; for Fold Change of IC50, wash off vs 48 h: IC50 from 48 h incubation to IC50 following wash off and further 72 h
T. cruzi [6] = assay: T. cruzi temporal image-based assay, 24 h exposure; format: cell-based, Trypanosoma cruzi; settings: for IC50: read-out: IC50 24 h T. cruzi
[7] = 48 h incubation, wash off, further 72 h
[8] = Trypanosoma cruzi, 48 h incubation, wash off, further 72 h
[9] = Trypanosoma cruzi, NA = not active at given concentration

SMILES	Speed of Action (FA/SA) (T. cruzi and T.b. brucei; TC = T. cruzi)	SI (T.b. brucei) HEK [2]	Emax % (T. cruzi) [4]	IC50 [4]	SI (T. cruzi) 3T3 [4]	SI (T. cruzi) HEK [4]	IC50 (HEK293 cells)	Emax % (T.b. brucei) [2]	IC50 [2]	Fold Change of IC50, wash off vs 48 h (T. cruzi [5])	also measured
C[C@@H]1[C@H](O)[C@@H](C)/C=C/C=C/C=C/C=C/C=C/C=C/C=C/[C@H](O[C@@H]2O[C@H](C)[C@@H](O)[C@H](N)[C@@H]2O)C[C@@H]2O[C@](O)(C[C@@H](O)C[C@@H](O)[C@H](O)CC[C@@H](O)C[C@@H](O)CC(=O)O[C@H]1C)C[C@H](O)[C@H]2C(=O)O [Amphotericin B, reference compound]	FA (Fast-acting (FA) = IC50 value can be determined following 24 h incubation, <10-fold difference in the IC50 value from 24 to 72 h)	>2.6	–	–	–	–	–	–	–	–	Emax (T.b. brucei [1]; Trypanosoma brucei): 100%; IC50 (T.b. brucei [1]; Trypanosoma brucei): 260 ± 1.6 nM; IC50 HEK (HEK293 cells): NA at 4.0 µM (NT); Emax ([2]; Trypanosoma brucei): 100%; IC50 ([2]; Trypanosoma brucei): 1500 ± 88 nM; Emax (T.b. brucei [3]; Trypanosoma brucei): 100%; IC50 (T.b. brucei [3]; Trypanosoma brucei): 880 ± 163 nM
N=C(N)c1ccc(/N=N/Nc2ccc(C(=N)N)cc2)cc1 [Diminazene aceturate, reference compound]	FA (Fast-acting (FA) = IC50 value can be determined following 24 h incubation, <10-fold difference in the IC50 value from 24 to 72 h)	>1027	–	–	–	–	–	–	–	–	Emax (T.b. brucei [1]; Trypanosoma brucei): 100%; IC50 (T.b. brucei [1]; Trypanosoma brucei): 70 ± 27 nM; IC50 HEK (HEK293 cells): NA at 38 µM (NT); Emax ([2]; Trypanosoma brucei): 100%; IC50 ([2]; Trypanosoma brucei): 37 ± 0.41 nM; Emax (T.b. brucei [3]; Trypanosoma brucei): 99%; IC50 (T.b. brucei [3]; Trypanosoma brucei): 210 ± 58 nM
CN1CCC(NCc2cccc(-c3ccc(S(=O)(=O)NCc4ccccc4)cc3)c2)CC1 [MMV 22029]	–	5.6	100%	8200 ± 690 nM	1.2	1.0 (NT)	8100 ± 54 nM	99%	1500 ± 59 nM	–	SI (T. cruzi) HEK ([4]; listed as MMV022029): < 10; SI (T.b. brucei) HEK ([2]; listed as MMV022029): < 10
O=C(Nc1ccc(N2CCNCC2)cc1)c1ccn2ncc(-c3cccc(Cl)c3)c2n1 [MMV 22478]	–	8.0	100%	5900 ± 1300 nM	1.04	2.03 (NT)	12000 ± 390 nM	98%	1500 ± 180 nM	–	SI (T. cruzi) HEK ([4]; listed as MMV022478): < 10; SI (T.b. brucei) HEK ([2]; listed as MMV022478): < 10
OCCc1ccc(Nc2nccc(-c3nnc4ccccn34)n2)cc1 [MMV 028694]	SA (TC)	12	98%	9400 ± 1800 nM	>7.8	1.0 (NT)	9700 ± 50 nM	100%	830 ± 57 nM	1.2 fold	Emax % (T. cruzi) ([4]; listed as MMV028694): > 95%; SI (T. cruzi) 3T3 ([4]; listed as MMV028694): > 7.8; SI (T. cruzi) HEK ([4]; listed as MMV028694): 1; Emax 48 h T.b. brucei (T.b. brucei [1]): 100%; IC50 (T.b. brucei [1]): 710 ± 130 nM; Emax Wash Off (T. cruzi [5]; [7]): 98%; IC50 (T. cruzi [5]; [7]): 12000 ± 1800 nM; Emax 24 h T.b. brucei (T.b. brucei [3]): 87%; IC50 (T.b. brucei [3]): 700 ± 190 nM
c1ccc(Oc2ccc(-c3cc(N4CCNCC4)[nH]n3)cc2)cc1 [MMV 687706]	–	7.4	99%	11000 ± 205 nM	>6.6	1.5 (NT)	16200 ± 5200 nM	99%	2200 ± 2.8 nM	–	–
Cc1cc(C2=NOC(c3cc(Cl)c(F)c(Cl)c3)(C(F)(F)F)C2)ccc1C(=O)NCc1ccc2c(c1)C(C)(C)OB2O (stereo not shown) [MMV 687776]	SA (TC)	3.0	100%	1600 ± 380 nM	>46	8.1	13000 ± 1600 nM	99%	4300 ± 1300 nM	1.0 fold	Emax % (T. cruzi) ([4]; listed as MMV687776): > 95%; SI (T. cruzi) 3T3 ([4]; listed as MMV687776): > 46; SI (T. cruzi) (HEP) [4]: > 50; Emax 48 h T.b. brucei (T.b. brucei [1]): 99%; IC50 (T.b. brucei [1]): 4040 ± 1780 nM; Emax Wash Off (T. cruzi [5]; [7]): 100%; IC50 (T. cruzi [5]; [7]): 1600 ± 64 nM; SI (T.b. brucei) (HEP) [2]: > 18; Emax 24 h T.b. brucei (T.b. brucei [3]): 89%; IC50 (T.b. brucei [3]): 5350 ± 103 nM
CN1CCN(S(=O)(=O)c2ccc(-c3ccc4c(Nc5ncc(Cl)cn5)ccnc4c3)cc2)CC1 [MMV 688283]	SA (TC)	>10 (>10)	100%	6600 ± 1200 nM	>11	>12 (>12)	–	99%	7600 ± 270 nM	1.2 fold	Emax % (T. cruzi) ([4]; listed as MMV688283): > 95%; SI (T. cruzi) (HEP) [4]: >12 (>12); Emax 48 h T.b. brucei (T.b. brucei [1]): 96%; IC50 (T.b. brucei [1]): 6200 ± 450 nM; Emax Wash Off (T. cruzi [5]; [7]): 100%; IC50 (T. cruzi [5]; [7]): 7600 ± 1500 nM; SI (T.b. brucei) (HEP) [2]: >10 (>10); Emax 24 h T.b. brucei (T.b. brucei [3]): 94%; IC50 (T.b. brucei [3]): 7800 ± 320 nM
N=C(N)c1ccc(-c2cc(-c3ccccc3)on2)cc1 [MMV 688514]	–	6.0	100%	4900 ± 160 nM	2.7	1.9 (NT)	9100 ± 460 nM	99%	1500 ± 27 nM	–	SI (T. cruzi) HEK ([4]; listed as MMV688514): < 10; SI (T.b. brucei) HEK ([2]; listed as MMV688514): < 10
CC1CCCCN1C(=O)NCCc1coc(-c2ccc(F)cc2)n1 (stereo not shown) [MMV 688797]	FA (Fast-acting (FA) = IC50 value can be determined following 24 h incubation, <10-fold difference in the IC50 value from 24 to 72 h)	>814 (>814)	–	–	>143	>154 (>154)	–	–	–	–	Emax ([4]; Trypanosoma cruzi, TULAHUEN): 100%; IC50 ([4]; Trypanosoma cruzi, TULAHUEN): 510 ± 110 nM; SI (T. cruzi) (HEP) [4]: >154 (>154); Emax (T.b. brucei [1]; Trypanosoma brucei): 99%; IC50 (T.b. brucei [1]; Trypanosoma brucei): 100 ± 6.2 nM; IC50 (T. cruzi [5]; [8]): 380 ± 56 nM; Speed of Action (Table 5) (T. cruzi and T.b. brucei; prioritised compounds, Fast/Slow): Fast; Emax ([2]; Trypanosoma brucei): 99%; IC50 ([2]; Trypanosoma brucei): 97 ± 2.1 nM; SI (T.b. brucei) (HEP) [2]: >814 (>814); Emax (T.b. brucei [3]; Trypanosoma brucei): 99%; IC50 (T.b. brucei [3]; Trypanosoma brucei): 150 ± 29 nM; Emax (T. cruzi [6]; Trypanosoma cruzi): 86%; IC50 (T. cruzi [6]; [9]): 890 ± 135 nM
CC1CS(=O)(=O)CCN1/N=C/c1ccc([N+](=O)[O-])o1 (stereo not shown) [Nifurtimox, reference compound]	FA (Fast-acting (FA) = IC50 value can be determined following 24 h incubation, <10-fold difference in the IC50 value from 24 to 72 h)	–	–	–	>149	–	–	–	–	0.60 fold	Emax ([4]; Trypanosoma cruzi, TULAHUEN): 100%; IC50 ([4]; Trypanosoma cruzi, TULAHUEN): 850 ± 48 nM; IC50 (T. cruzi [5]; [8]): 350 ± 14 nM; IC50 (T. cruzi [6]; [9]): 1030 ± 76 nM
CC[C@@H]([C@H](C)O)n1ncn(-c2ccc(N3CCN(c4ccc(OC[C@@H]5CO[C@@](Cn6cncn6)(c6ccc(F)cc6F)C5)cc4)CC3)cc2)c1=O [Posaconazole, reference compound]	SA (Slow-acting (SA) = IC50 value unable to be determined following 24 h incubation (no plateau of activity, or plateau of activity is <80% or IC50 value < 10 µM), or >10-fold difference in the IC50 value from 24 to 72 h)	–	77%	–	>333	–	–	–	–	0.36 fold	Emax ([4]; Trypanosoma cruzi, TULAHUEN): 73%; IC50 ([4]; Trypanosoma cruzi, TULAHUEN): 5.5 ± 0.0041 nM; Emax (T. cruzi [5]; [8]): 100%; IC50 (T. cruzi [5]; [8]): 1.8 ± 0.078 nM; Cidal / Static / Not efficacious (T. cruzi and T.b. brucei; from wash off and 48 h Emax, TC = T. cruzi): Not efficacious (TC); IC50 24 h T. cruzi (T. cruzi [6]; NA = not active at given concentration): NA at 1 µM
